Experimental data taken from patent US7875638B2, “Synthesis of epothilones, intermediates thereto, analogues and uses thereof” (Sloan-Kettering Institute for Cancer Research, priority 2002, dated 2011).
Values after ≈ are worked out from the molar mass of the structure shown. Values joined by “and” are separate entries in the source; they are usually repeats but may differ in a detail not shown here. Identical values can stand only once. “Also recorded” adds a separate entry of the source. Like-named read-outs stand apart in the source and are kept apart here.

Key:
in vitro [1] = settings: mouse, plasma
Method: (§1) Stability of epothilones in mouse and in human liver S9 fraction. The stability study was carried out with a fully automated HPLC system which consisted of a Prospekt-2 (Spark Holland, Netherlands) sample preparation system and an Agilent 1100 HPLC system. Briefly, the Prospekt 2 picked up a C8 extraction cartridge and washed it with acetonitrile and water. The Agilent autosampler, set at 37° C., picked up 20 μl of the sample, loaded it onto the cartridge, washed it with water, then the Prospekt-2 diverted the mobile phase stream through the extraction cartridge onto the analytical column, Reliance Stable Bond C8 4×80 mm with guard column (MacMod, Chadds Ford, Pa.) and the eluent was monitored at 250 nm. […] Sample preparation involved the addition of equal volumes of plasma to PBS for a total volume of 300-400 μl, filtered, and the addition of 0.5-2 μl of the substrate (20 mM) to achieve about 30-50 mAU at 250 nm in the HPLC analysis. For pooled human liver microsome S9 fraction (Xeno Tech, Lenex, Kans.), 20 μl (400 μg) or S9 fraction was mixed with 280 μl of PBS then proceeded as above. The sampling period was controlled by the autosampler and peak area data were collected to compare the rate of disappearance of the parent compound.
(§2) Stability of epothilones in mouse and in human liver S9 fraction: The stability study was carried out with a fully automated HPLC system which consisted of a Prospekt-2 (Spark Holland, Netherlands) sample preparation system and an Agilent 1100 HPLC system. Briefly, the Prospekt 2 picked up a C8 extraction cartridge and washed it with acetonitrile and water. The Agilent autosampler, set at 37° C., picked up 20 μl of the sample, loaded it onto the cartridge, washed it with water, then the Prospekt-2 diverted the mobile phase stream through the extraction cartridge onto the analytical column, Reliance Stable Bond C8 4×80 mm with guard column (MacMod, Chadds Ford, Pa.) and the eluent was monitored at 250 nm. […] Sample preparation involves the addition of equal volumes of plasma to PBS for a total volume of 400 μl, filtered, and the addition of 0.5-2 μl of the substrate (20 mM) to achieve about 30-50 mAU at 250 nm in the HPLC analysis. For pooled human liver microsome S9 fraction (Xeno Tech, Lenex, Kans.), 20 μl (400 μg) or S9 fraction was mixed with 280 μl of PBS then proceeds as above. The sampling period was controlled by the autosampler and peak area data were collected to compare the rate of disappearance of the parent compound.

[2] = for Slower drug degradation in murine plasma as compared to dEpoB (1), factor: exposure to murine plasma
Method: as §1, §2

CCRF-CEM = settings: for Potency compared with EpoB (51): sensitive and resistant cell lines
Method: (§3) Cytotoxicity Assays. In preparation for in vitro cytotoxicity assays, cells were cultured at an initial density 2-5×10^4 cells per milliliter. […] For both methods, the absorbance of each well was measured with a microplate reader (Power Wave XS, Bio-Tek, Winooski, Vt.).
A typical experiment involves culturing cells (e.g., CCRF-CEM) at an initial density of 2-5×10^4 cells per ml. […] For cells that were grown in suspension (such as CCRF-CEM and its sublines), cytotoxicitiy is measured by using the 2,-3-bis(2-methoxy-4-nitro-5-sulfophenyl)-5 carboxanilide)-2H terazodium hydroxide (XTT)-microculture tetrazonium method in duplicate in 96-well microtiter plates. For both methods, the absorbance of each well is measured with a microplate reader (EL-340, Bio-Tek, Burlington, Vt.). Each run entails six or seven concentrations of the tested drugs. Dose-effect relationship data are analyzed with the median-effect plot.
Cytotoxicity Assays: In preparation for in vitro cytotoxicity assays, cells were cultured at an initial density 2-5×10^4 cells per milliliter. […] For both methods, the absorbance of each well was measured with a microplate reader (Power Wave XS, Bio-Tek, Winooski, Vt.).

in vitro [3] = settings: human, s9
[4] = Octanol-water partition (POW) number by HPLC; type: physicochemical; settings: HPLC estimate, pH 7.4 buffer; read-out: Lipophilicity octanol/water partition (POW)
Method: Determination of partition of octanol-water (POW) number. An HPLC method is used to estimate octanol-water partition. An Agilent 1100 HPLC system is used with an eclipse XDB C18 column 4.6×250 mm with a mobile phase of 60% acetonitrile/40% 25 mM potassium phosphate buffer at pH 7.4 with a flow rate of 0.8 ml per min. and the eluent is monitored at 250 nm. The standards used are benzyl alcohol, acetophenone, benzophenone, naphthalene, diphenyl ether and dibenzyl with known POW of […] respectively. Sodium dichromate is used to evaluate time zero which is 2.5 min and the retention times for the standards are 3.9, 5.4, 10.6, 14, 18.7 and 19.8 min, respectively. The k value is calculated by the formula of k=(trt−t0)/t0. Linear regression of log k vs. log POW gives a straight line with r^2=0.966. This graph is used to evaluate the POW value of the epothilone analogs.

[5] = tested on: human xenografts in nude mice, such as MX-1; set-up: Relative therapuetic index at MTD: key to the marks not given beside the values
CCRF-CEM/Taxol = type: cell-based, human; settings: for IC50: Homo sapiens, CCRF-CEM
[6] = tested on: human colon carcinoma HCT-116 xenograft
[7] = tested on: human mammary carcinoma MX-1 xenograft; settings: 20 mg/kg
[8] = tested on: human mammary carcinoma MX-1 xenograft; experiment: MX-1 xenograft in nude mice
[9] = tested on: human colon carcinoma HCT-116 xenograft; experiment: HCT-116 xenograft in nude mice
[10] = tested on: human T-cell lymphoblastic leukemia CCRF-CEM/Taxol xenograft; experiment: CCRF-CEM/Taxol xenograft in nude mice; type: in vivo
[11] = preliminary metabolic degradation studies
[12] = read-out: IC50, CCRF-CEM, XTT assay following 72 h inhibition, Table 1-4
[13] = 72 h, read-out: IC50, CCRF-CEM/Taxol
[14] = XTT assay following 72 h inhibition, Table 1-4, read-out: IC50, CCRF-CEM/Taxol
[15] = read-out: CCRF-CEM (IC50 (μM)), XTT assay following 72 h inhibition, Table 1-1

Method for A549/taxol cells: as §3

C/C(=C\c1csc(C)n1)[C@@H]1C/C=C(/C(F)(F)F)CCC[C@H](C)[C@H](O)[C@@H](C)C(=O)C(C)(C)[C@@H](O)CC(=O)O1 [Compound 2, 26-trifluoro-12,13-desoxyepothilone B]
half-life (in vitro [1]): 1.1 ± 0.117 h
Slower drug degradation in murine plasma as compared to dEpoB (1), factor [2]: by a factor of seven
IC50 (CCRF-CEM; human): 0.0093 ± 0.0052 µM
IC50 (CCRF-CEM; read-out: IC50, CCRF-CEM(C), XTT assay following 72 h inhibition, Table 1-3): 0.0041 µM
half-life (in vitro [3]): 1.6 ± 0.4 h
chromatographic logP [4]: 4.1
solubility (Solubility in water; water): 8 µg/mL (≈ 14.7 µM)
Maximal b.w. % drop without death ([5]; mouse, in vivo): 22%
Therapeutic dose regimen for Q2D 6 hr-iv infusion ([5]; mouse, in vivo, iv): 15 to 20 mg/kg
IC50 (CCRF-CEM/Taxol; XTT assay following 72 h inhibition, Table 1-3, read-out: IC50, C/Taxol): 0.018 µM

CC(=O)O[C@H]1C(=O)[C@@]2(C)[C@H]([C@H](OC(=O)c3ccccc3)[C@]3(O)C[C@H](OC(=O)[C@H](O)[C@@H](NC(=O)c4ccccc4)c4ccccc4)C(C)=C1C3(C)C)[C@]1(OC(C)=O)CO[C@@H]1C[C@@H]2O [Paclitaxel, reference compound]
Relapse, time after stopping treatment ([6]; 20 mg/kg): 1.1 months
Cell kill ([6]; 96 h): 2.56 log
Tumor suppression ([6]; 96 h): 99.7%
Resistance of A549/taxol cells (A549/taxol cells): 44 fold
Tumor reappeared on day 10 after administration (mice) [7]: 2/7
Tumor free after Q2Dx6 6 hr-iv. infusion (mice) ([7]; 6 h): 7/7
Mice relapsed on day 10 after suspension of treatment ([7]; 240 h): 2/7
Effect of oral administration on MX-1 xenografts ([8]; oral): did not affect the tumor
Tumor relapse during follow-up to D200 ([9]; Fludelone 20 and 30 mg/kg, Taxol 20 mg/kg): tumor relapse occurred on D71, 75, 81 and 81; also recorded: relapses on D71, 75, 81, and 81
Tumor disappearance (mice) ([9]; Q2Dx4, 6 hr-i.v. infusion for 3 cycles, F3-deH-dEpoB 20 and 30 mg/kg, Taxol 20 mg/kg): 4 out of 4
Final tumor suppression on D34 ([10]; 20 mg/kg): 75.6%
Therapeutic effect on CCRF-CEM/Taxol xenograft ([10]; 20 mg/kg, 6 hr-i.v. infusion, listed as Taxol): only partial suppression of tumor growth and failed to achieve tumor shrinkage; also recorded: tumor growth suppression but with little or no tumor shrinkage
Resistance of CCRF-CEM/Taxol subline (CCRF-CEM/Taxol): 44 fold

CC1=C/C[C@@H](/C(C)=C/c2csc(C)n2)OC(=O)C[C@H](O)C(C)(C)C(=O)[C@H](C)[C@@H](O)[C@@H](C)C\C=C\1 [Compound 6, epothilone 490, reference compound]
IC50 (CCRF-CEM; read-out: CCRF-CEM (IC50 (μM))): 0.02 µM

C/C(=C\c1csc(C)n1)[C@@H]1C[C@@H]2O[C@]2(C)CCC[C@H](C)[C@H](O)[C@@H](C)C(=O)C(C)(C)[C@@H](O)CC(=O)O1 [Compound 51, Epothilone B, reference compound]
half-life (in vitro [1]): 0.95 h
IC50 in vitro (FIG. 94) (CCRF-CEM): sub-nanomolar
IC50 (CCRF-CEM; read-out: Cytotoxic Efficacy IC50, CCRF-CEM leukemic cells, range of two experiments, seven concentration points): 0.00053 ± 0.0002 µM
IC50 (CCRF-CEM; [12]): 0.00062 µM
half-life (in vitro [3]): 15.8 h
Therapeutic dose regimen for Q2D 6 hr-iv infusion ([5]; Q2D 6 hr-iv infusion): 0.6 to 0.8 mg/kg
Relative therapuetic index at MTD ([5]; graded at maximal tolerated dose): +++
Maximal b.w. % drop without death ([5]; nude mice): 15%
IC50 (CCRF-CEM/Taxol; [13]): 0.0011 µM

C/C(=C\c1csc(C)n1)[C@@H]1C[C@@H]2O[C@]2(C)C/C=C/[C@H](C)[C@H](O)[C@@H](C)C(=O)C(C)(C)[C@@H](O)CC(=O)O1 [Compound 49, (E)-9,10-dehydroepothilone B]
IC50 in vitro (FIG. 94) (CCRF-CEM): sub-nanomolar
IC50 (CCRF-CEM; [12]): 0.00023 µM
Potency compared with EpoB (51) (CCRF-CEM): ~3 fold and 2-4 fold
Therapeutic effect on MX-1 xenograft ([8]; 0.4-0.6 mg/kg, every three days 9-11 times, 6 hour iv infusion): shrinkage and disappearance of the tumor
Therapeutic effect on MX-1 xenograft ([8]; every other day for 8 doses): tumor growth suppression but no shrinkage of the tumor
Body weight recovery, % of the control ([8]; every other day for 9 doses, second to eighth day): 76% to 82%
Mice died of toxicity within three days after the sixth dosage ([9]; 0.6 mg/kg, Q2Wx6, 6 hour infusion): four out of four
Antitumor effect in human solid tumor xenograft models ([5]; mouse, in vivo): strongly suppressed tumor growth
Therapeutic effect on CCRF-CEM/Taxol xenograft ([10]; 0.6 mg/kg, Q3Dx5,x2): abolished tumor growth
IC50 (CCRF-CEM/Taxol; [14]): 0.00042 µM

C/C(=C\c1csc(C)n1)[C@@H]1C[C@H]2O[C@@]2(C)C/C=C/[C@H](C)[C@H](O)[C@@H](C)C(=O)C(C)(C)[C@@H](O)CC(=O)O1 [Compound 50]
IC50 (CCRF-CEM; [12]): 0.0134 µM
Potency compared with EpoB (51) (CCRF-CEM): much lower activity
Potency compared with EpoB (51) (CCRF-CEM; listed as unnatural α-oxirane): virtually devoid of activity
IC50 (CCRF-CEM/Taxol; [14]): 0.0802 µM

[17]ddEpoB [Compound 23, reference compound]
IC50 (CCRF-CEM; [15]): 0.04 µM

C/C(=C\c1csc(C)n1)[C@@H]1C/C=C(/C(F)(F)F)C/C=C/C[C@H](C)[C@H](O)[C@@H](C)C(=O)C(C)(C)[C@@H](O)CC(=O)O1 [Compound 19, 27-F3-[17]ddEpoB]
Degradation on exposure to human plasma [11]: remained mostly intact
Degradation on exposure to nude mouse plasma ([2]; preliminary metabolic degradation studies): remained mostly intact
IC50 (CCRF-CEM; [15]): 0.068 µM

C/C(=C\c1csc(CO)n1)C1C/C=C(/C(F)(F)F)C/C=C/[C@H](C)[C@H](O)[C@@H](C)C(=O)C(C)(C)[C@@H](O)CC(=O)O1 (stereo partly shown) [Compound 59, 26-trifluoro-9,10-dehydro-dEpoF]
Water solubility relative to other epothilones (Solubility in water): greatly increased water solubility

C/C(=C\c1csc(C)n1)[C@@H]1C[C@H]2O[C@@]2(C)CCC[C@H](C)[C@H](O)[C@@H](C)C(=O)C(C)(C)[C@@H](O)CC(=O)O1 [Compound 52]
IC50 (CCRF-CEM; [12]): 0.083 µM
Potency compared with EpoB (51) (CCRF-CEM): much lower activity
IC50 (CCRF-CEM/Taxol; [13]): 0.151 µM

C/C1=C/C[C@@H](/C(C)=C/c2csc(CO)n2)OC(=O)C[C@H](O)C(C)(C)C(=O)[C@H](C)[C@@H](O)[C@@H](C)/C=C/C1 [Compound 57, 9,10-dehydro-dEpoF]
Slower drug degradation in murine plasma as compared to dEpoB (1), factor [2]: ca. 7
IC50 in vitro (FIG. 94) (CCRF-CEM): sub-nanomolar
IC50 (CCRF-CEM; read-out: IC50 (μM), CCRF-CEM, XTT assay following 72 h inhibition, Table 1-2): 0.00051 µM
Water solubility relative to other epothilones (Solubility in water): greatly increased water solubility
Antitumor effect in human solid tumor xenograft models ([5]; mouse, in vivo): strongly suppressed tumor growth
IC50 (CCRF-CEM/Taxol; XTT assay following 72 h inhibition, Table 1-2, read-out: IC50 (μM), CCRF-CEM/Taxol): 0.00073 µM
